Test results: patent US6699681B2, “Endothelin converting enzymes and the amyloid β peptide” (Mayo Foundation for Medical Education and Research, priority 2000, dated 2004)
Entries after “also recorded” stand apart in the source; their conditions may differ.

How the values were obtained:
[1] = test system: Aβ concentration in plasma; assay: Treatment of guinea pigs with phosphoramidon, plasma Aβ by sandwich ELISA; type: in vivo, guinea pig; settings: guinea pigs treated intravenously
Method: Animal experiments were conducted within the United States Department of Agriculture (USDA) and the National Institute of Health (NIH) guidelines for animal use and care. To prevent clotting and to facilitate the collection of plasma, each animal was given 100 USP units/kg heparin sodium salt (Sigma, St. Louis, Mo.) administered intraperitoneally (IP) prior to experimentation. Animals were anesthetized with a single IP injection of 0.9 mg/kg acepromazine maleate (Fermenta, Kansas City, Mo.) combined with 90 mg/kg Ketaset (Fort Dodge Laboratories, Fort Dodge, Iowa). […] During the entire operation, the animal's temperature was periodically monitored and anesthesia maintained by further intraperitoneal injections as necessary. […] Data was obtained from at least 2 animals, with the Aβ in each sample measured at least twice.
Human and guinea pig Aβ40 or Aβ42 was measured in plasma by sandwich ELISA as previously described (Suzuki et al., 1994, Science, 264:1336-1340) using the BAN-50/BA-27 or BAN-50/BC-05 antibody systems, respectively (Takeda; Japan). Hamster Aβ40- or Aβ42-derived from CHO cells was measured using the BNT-77/BA-27 or BNT-77/BC-05 antibody systems, respectively. Aβ concentration in samples was determined by comparison to synthetic Aβ40 or Aβ42 standards (Bachem, Switzerland). […]

H4 cells = assay: Removal of synthetic Aβ spiked into culture medium of H4 cells; type: cell-based, human; settings: incubated 6 or 24 hrs, presence vs absence of phosphoramidon
Method: Human and guinea pig Aβ40 or Aβ42 was measured in plasma by sandwich ELISA as previously described (Suzuki et al., 1994, Science, 264:1336-1340) using the BAN-50/BA-27 or BAN-50/BC-05 antibody systems, respectively (Takeda; Japan). Hamster Aβ40- or Aβ42-derived from CHO cells was measured using the BNT-77/BA-27 or BNT-77/BC-05 antibody systems, respectively. Aβ concentration in samples was determined by comparison to synthetic Aβ40 or Aβ42 standards (Bachem, Switzerland). Data was obtained from triplicate wells. […] Plates were read at 450 nm in a SpectraMax Plus spectrophotometer (Molecular Devices; Sunnyvale, Calif.) and analyzed by SOFTmax® PRO software. Aβ40 or Aβ42 were quantitated by comparison with the values obtained for each synthetic Aβ standard from the same plate. To exclude the possibility that the phosphoramidon-induced effect was due to inhibition of extracellular degradation and/or internalization of Aβ by H4 cells, synthetic Aβ was spiked into the culture medium, incubated for 6 or 24 hrs, and the amount of synthetic Aβ remaining in the medium was determined by sandwich ELISA. […] Intracellular Aβ has not been convincingly detected in H4 cells, presumably due to rapid secretion of the peptide.

Structure (SMILES): CC(C)C[C@H](NP(=O)(O)O[C@@H]1O[C@@H](C)[C@H](O)[C@@H](O)[C@H]1O)C(=O)N[C@@H](Cc1c[nH]c2ccccc12)C(=O)O [phosphoramidon]
- Aβ concentration in the plasma [1]: dose-dependent, rapid increase
- removal of synthetic Aβ spiked into the culture medium (H4 cells): removed equally; also recorded: not affected
